What all share (test): CRE-luciferase assay of odorant receptor activation (Dual-Glo, Hana3A cells, RTP1S), dose-response EC50
What all share (type): cell-based

Assay [1] concerns the target T1, human odorant receptors (ORs) (Homo sapiens, UniProt Q8NG81).
T1 construct: OR open reading frames were amplified from genomic DNA; expressed in transfected cells; host or cells: Hana3A cells, co-transfected with RTP1S, CRE-luciferase and pRL-SV40
T1 sequence (Q8NG81 1-312): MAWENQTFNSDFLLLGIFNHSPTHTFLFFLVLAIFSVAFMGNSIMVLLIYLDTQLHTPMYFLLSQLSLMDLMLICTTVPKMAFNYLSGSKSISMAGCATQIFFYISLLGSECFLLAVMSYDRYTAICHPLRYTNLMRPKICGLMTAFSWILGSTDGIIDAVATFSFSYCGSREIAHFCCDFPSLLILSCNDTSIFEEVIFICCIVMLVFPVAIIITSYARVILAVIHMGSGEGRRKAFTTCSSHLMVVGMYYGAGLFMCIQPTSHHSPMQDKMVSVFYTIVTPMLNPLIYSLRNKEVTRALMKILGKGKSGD
Conditions: receptor OR2M7. The essentials:
(§1)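 Hana3A cells were co-transfected with Rho-tagged OR, RTP1S, CRE-luciferase and pRL-SV40, then exposed to odorant in CD293 medium for 4 hrs at 37° C. Firefly luminescence was divided by Renilla and normalized as (LN−Lmin)/(Lmax−Lmin) per plate set. Each dose was tested at least three times, and EC50 came from sigmoidal fits.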

The target in assay [2] is T2, human odorant receptors (ORs) (Homo sapiens, UniProt Q8NGJ5).
T2 construct: OR open reading frames were amplified from genomic DNA; expressed in transfected cells; host or cells: Hana3A cells, co-transfected with RTP1S, CRE-luciferase and pRL-SV40
T2 sequence (Q8NGJ5 1-315): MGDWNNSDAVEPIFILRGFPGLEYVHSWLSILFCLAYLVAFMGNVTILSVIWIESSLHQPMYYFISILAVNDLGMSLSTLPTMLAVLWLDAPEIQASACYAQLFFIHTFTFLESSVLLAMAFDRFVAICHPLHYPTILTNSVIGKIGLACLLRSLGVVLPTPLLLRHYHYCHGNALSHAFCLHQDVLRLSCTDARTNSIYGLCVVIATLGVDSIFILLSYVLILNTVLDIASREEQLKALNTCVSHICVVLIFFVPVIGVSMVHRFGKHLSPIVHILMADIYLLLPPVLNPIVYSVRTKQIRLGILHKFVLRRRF
In short, it runs like this:
as §1

Assay [3] concerns the target T3, human odorant receptors (ORs) (Homo sapiens, UniProt O95371).
T3 construct: OR open reading frames were amplified from genomic DNA; expressed in transfected cells; host or cells: Hana3A cells, co-transfected with RTP1S, CRE-luciferase and pRL-SV40
T3 sequence (O95371 1-312): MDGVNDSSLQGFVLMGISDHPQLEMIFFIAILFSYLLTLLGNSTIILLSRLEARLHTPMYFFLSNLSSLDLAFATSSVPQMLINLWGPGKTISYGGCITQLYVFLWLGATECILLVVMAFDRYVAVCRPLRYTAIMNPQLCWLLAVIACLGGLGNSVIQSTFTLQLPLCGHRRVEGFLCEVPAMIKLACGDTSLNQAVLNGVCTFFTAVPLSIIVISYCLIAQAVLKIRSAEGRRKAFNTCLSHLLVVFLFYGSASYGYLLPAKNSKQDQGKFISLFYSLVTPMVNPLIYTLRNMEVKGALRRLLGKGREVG
Particulars: receptor OR2C1; read-out: log EC50 of odorant at OR2C1 (0 = no response) (converted). The essentials: as §1

The target of assay [4] is T4, human odorant receptors (ORs) (Homo sapiens, UniProt Q8TCB6).
T4 construct: OR open reading frames were amplified from genomic DNA; expressed in transfected cells; host or cells: Hana3A cells, co-transfected with RTP1S, CRE-luciferase and pRL-SV40
T4 sequence (Q8TCB6 1-318): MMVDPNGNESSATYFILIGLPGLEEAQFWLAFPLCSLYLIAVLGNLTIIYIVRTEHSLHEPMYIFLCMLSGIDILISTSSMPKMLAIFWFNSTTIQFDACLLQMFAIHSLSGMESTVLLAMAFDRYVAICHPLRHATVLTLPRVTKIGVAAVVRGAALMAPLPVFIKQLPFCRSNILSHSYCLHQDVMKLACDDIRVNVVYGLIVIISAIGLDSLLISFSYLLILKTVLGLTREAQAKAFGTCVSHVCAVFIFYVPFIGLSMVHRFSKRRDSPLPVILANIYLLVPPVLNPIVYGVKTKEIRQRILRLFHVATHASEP
The essentials: as §1

pEC50: −log10 of the molar value. Like-named read-outs stand apart in the source and are kept apart here.

What is called EC50 is the concentration giving half of the maximal effect. Turning to `CC(C)=CCCC(C)CCO` (single isomer, unassigned; (-)) [(−)-b-C ? inedol], the EC50 in assay [1] (0 = no response, read-out: log EC50, OR2M7 (converted)) was 140 µM.

As a reminder, the pEC50 is the EC50 on a negative log10 scale, so that one unit is a factor of ten. A higher pEC50 goes with a low EC50. `C=CCOC(=O)Cc1ccccc1` [Allyl phenylacetate]: the pEC50 in assay [2] is 4.17.

In the case of `CC(C)=CCC/C(C)=C/CO` [Getaniol], the concentration for a half-maximal effect (EC50) in assay [1] (read-out: log EC50 (Table 4 value), OR2M7 (converted)) was 627 µM.

On to `CCCCCCCCCS` [Nonanethiol], for which, in assay [3], the EC50 was 128 µM.

`CCCCCCCCC(=O)O` [Nonanoic acid] had a pEC50 in assay [4] of 3.61.

Consider `CCCCCCCCS` [Octanethiol], for which, in assay [3], the EC50 is 88.9 µM.

For the origin of these results see US20100248390A1, “COMPOSITIONS AND METHODS FOR IDENTIFYING LIGANDS OF ODORANT RECEPTORS” (DUKE UNIVERSITY, priority 2009, published 2010).
